Laboratory results: ChEMBL document CHEMBL1201862, “PubChem BioAssay data set” (2004)
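Test compounds were applied to cells in 96-well plates for 48 hours at 5 doses. GI50: concentration for 50% inhibition of growth.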 Activity calls are given as the source filed them. Rule as the data show it: active = GI50 up to about 1.1 µM and inactive = higher.

Assays:
Assay in all cases: NCI tumour cell line growth inhibition, 48 h
[1] = tested on: SF-268
[2] = tested on: SNB-19
[3] = tested on: IGROV-1
[4] = tested on: M19-MEL
[5] = tested on: U-251
[6] = tested on: A549
[7] = tested on: HOP-92
[8] = tested on: SW-620
[9] = tested on: HL-60
[10] = tested on: RXF 393
[11] = tested on: SN12C
[12] = tested on: KM12
[13] = tested on: NCI-H23
[14] = tested on: NCI-H460
[15] = tested on: OVCAR-8
[16] = tested on: SK-MEL-2
[17] = tested on: SR
[18] = tested on: CCRF-CEM
[19] = tested on: ACHN
[20] = tested on: HCC 2998
[21] = tested on: K562
[22] = tested on: KM-20L2
[23] = tested on: Malme-3M
[24] = tested on: LXFL 529
[25] = tested on: SK-MEL-5
[26] = tested on: NCI-H226
[27] = tested on: CAKI-1
[28] = tested on: DMS-273
[29] = tested on: NCI-H522
[30] = tested on: COLO 205
[31] = tested on: SK-OV-3
[32] = tested on: UACC-62
[33] = tested on: SNB-78
[34] = tested on: SF-295
[35] = tested on: HOP-18
[36] = tested on: OVCAR-5
[37] = tested on: UO-31
[38] = tested on: TK-10
[39] = tested on: M14
[40] = tested on: SF-539
[41] = tested on: 786-0
[42] = tested on: MOLT-4
[43] = tested on: UACC-257
[44] = tested on: HOP-62
[45] = tested on: A498
[46] = tested on: OVCAR-3
[47] = tested on: LOX IMVI
[48] = tested on: SNB-75
[49] = tested on: HCT-116
[50] = tested on: DMS-114
[51] = tested on: DLD-1
[52] = tested on: HT-29
[53] = tested on: HCT-15
[54] = tested on: OVCAR-4
[55] = tested on: SK-MEL-28
[56] = tested on: EKVX
[57] = tested on: RPMI-8226

With `CC1(C)CC(=O)C(CC2C(=O)c3ccccc3C2=O)C(=O)C1` the GI50 [1] was > 100 µM (inactive), the GI50 [2] was > 100 µM (inactive) and the GI50 [3] was > 100 µM (inactive). For the same compound, the GI50 [4] was > 100 µM (inactive), the GI50 [5] was > 100 µM (inactive) and the GI50 [6] was > 100 µM (inactive). The GI50 [7] was > 100 µM (inactive), the GI50 [8] was > 100 µM (inactive) and the GI50 [9] was > 100 µM (inactive). For the same compound, the GI50 [10] was > 100 µM (inactive), the GI50 [11] was > 100 µM (inactive) and the GI50 [12] was > 100 µM (inactive). For the same compound, the GI50 [13] was > 100 µM (inactive), the GI50 [14] was > 100 µM (inactive) and the GI50 [15] was > 100 µM (inactive). The GI50 [16] was > 100 µM (inactive), the GI50 [17] was 53.7 µM (inactive) and the GI50 [18] was > 100 µM (inactive). The GI50 [19] was > 100 µM (inactive), the GI50 [20] was > 100 µM (inactive) and the GI50 [21] was > 100 µM (inactive). The GI50 [22] was > 100 µM (inactive), the GI50 [23] was > 100 µM (inactive) and the GI50 [24] was > 100 µM (inactive). For the same compound, the GI50 [25] was > 100 µM (inactive), the GI50 [26] was > 100 µM (inactive) and the GI50 [27] was > 100 µM (inactive). The GI50 [28] was > 100 µM (inactive), the GI50 [29] was > 100 µM (inactive) and the GI50 [30] was > 100 µM (inactive). For the same compound, the GI50 [31] was > 100 µM (inactive), the GI50 [32] was > 100 µM (inactive) and the GI50 [33] was > 100 µM (inactive). For the same compound, the GI50 [34] was > 100 µM (inactive), the GI50 [35] was > 100 µM (inactive) and the GI50 [36] was > 100 µM (inactive). The GI50 [37] was > 100 µM (inactive), the GI50 [38] was > 100 µM (inactive) and the GI50 [39] was > 100 µM (inactive). The GI50 [40] was > 100 µM (inactive), the GI50 [41] was > 100 µM (inactive) and the GI50 [42] was > 100 µM (inactive). The GI50 [43] was > 100 µM (inactive), the GI50 [44] was > 100 µM (inactive) and the GI50 [45] was > 100 µM (inactive). The GI50 [46] was > 100 µM (inactive), the GI50 [47] was > 100 µM (inactive) and the GI50 [48] was > 100 µM (inactive). The GI50 [49] was > 100 µM (inactive), the GI50 [50] was > 100 µM (inactive) and the GI50 [51] was > 100 µM (inactive). For the same compound, the GI50 [52] was > 100 µM (inactive), the GI50 [53] was over 100 µM and the GI50 [54] was > 100 µM (inactive). The GI50 [55] was > 100 µM (inactive) and the GI50 [56] was > 100 µM (inactive).
For `COC(=O)c1c(OC(=O)c2ccccc2)noc1CC(=O)OC1C=CCCC1` (stereo not given), the GI50 [1] was > 100 µM (inactive), the GI50 [2] was > 100 µM (inactive) and the GI50 [3] was > 100 µM (inactive). For the same compound, the GI50 [5] was > 100 µM (inactive), the GI50 [6] was > 100 µM (inactive) and the GI50 [8] was > 100 µM (inactive). The GI50 [9] was 35.1 µM (inactive), the GI50 [10] was 93.1 µM (inactive) and the GI50 [11] was > 100 µM (inactive). The GI50 [12] was > 100 µM (inactive), the GI50 [57] was > 100 µM (inactive) and the GI50 [14] was > 100 µM (inactive). The GI50 [15] was > 100 µM (inactive), the GI50 [16] was > 100 µM (inactive) and the GI50 [17] was > 100 µM (inactive). For the same compound, the GI50 [18] was 80 µM (inactive), the GI50 [19] was > 100 µM (inactive) and the GI50 [20] was > 100 µM (inactive). The GI50 [21] was 72.6 µM (inactive), the GI50 [22] was > 100 µM (inactive) and the GI50 [23] was > 100 µM (inactive). For the same compound, the GI50 [24] was 58.7 µM (inactive), the GI50 [25] was 27.5 µM (inactive) and the GI50 [26] was > 100 µM (inactive). For the same compound, the GI50 [27] was > 100 µM (inactive), the GI50 [28] was > 100 µM (inactive) and the GI50 [29] was 45.4 µM (inactive). For the same compound, the GI50 [30] was > 100 µM (inactive), the GI50 [31] was > 100 µM (inactive) and the GI50 [32] was 28.6 µM (inactive). The GI50 [33] was > 100 µM (inactive), the GI50 [35] was > 100 µM (inactive) and the GI50 [37] was 66.4 µM (inactive). For the same compound, the GI50 [38] was > 100 µM (inactive), the GI50 [39] was > 100 µM (inactive) and the GI50 [40] was > 100 µM (inactive). For the same compound, the GI50 [41] was > 100 µM (inactive), the GI50 [42] was 25.5 µM (inactive) and the GI50 [43] was 95.5 µM (inactive). For the same compound, the GI50 [44] was > 100 µM (inactive), the GI50 [45] was 68.5 µM (inactive) and the GI50 [46] was > 100 µM (inactive). The GI50 [48] was > 100 µM (inactive), the GI50 [49] was > 100 µM (inactive) and the GI50 [50] was 38.5 µM (inactive). For the same compound, the GI50 [51] was > 100 µM (inactive), the GI50 [53] was 86.1 µM and the GI50 [54] was > 100 µM (inactive). For the same compound, the GI50 [55] was > 100 µM (inactive).
